Results reported in a compilation of properties of binary mixtures (doi:10.1016/j.molliq.2022.119918).

Assay: xn = mol fraction of the nth substance listed
Conditions: 100 kPa

In the case of CS(C)=O + COCCCC[n+]1ccn(C)c1.NCC(=O)[O-], the viscosity (288.15 K, x2 = 0) is reported as 2.47 mPa·s, the viscosity (293.15 K, x2 = 0) is reported as 2.21 mPa·s and the viscosity (298.15 K, x2 = 0) is reported as 1.99 mPa·s. It also gave a viscosity (303.15 K, x2 = 0) of 1.81 mPa·s, a viscosity (313.15 K, x2 = 0) of 1.51 mPa·s and a viscosity (318.15 K, x2 = 0) of 1.39 mPa·s.

For COCCCC[n+]1ccn(C)c1.NCC(=O)[O-] + CS(C)=O, the viscosity (288.15 K, x1 = 0.1009) was 7.64 mPa·s, the viscosity (288.15 K, x1 = 0.1984) was 11.87 mPa·s and the viscosity (288.15 K, x1 = 0.299) was 20.11 mPa·s. For the same compound, the viscosity (288.15 K, x1 = 0.3986) was 32.75 mPa·s, the viscosity (288.15 K, x1 = 0.6006) was 66.91 mPa·s and the viscosity (288.15 K, x1 = 0.701) was 88.2 mPa·s. It also gave a viscosity (288.15 K, x1 = 0.7941) of 112 mPa·s, a viscosity (288.15 K, x1 = 0.907) of 149.9 mPa·s and a viscosity (288.15 K, x1 = 1) of 180.6 mPa·s. The viscosity (293.15 K, x1 = 0.1009) was 6.23 mPa·s, the viscosity (293.15 K, x1 = 0.1984) was 9.49 mPa·s and the viscosity (293.15 K, x1 = 0.299) was 15.68 mPa·s. For the same compound, the viscosity (293.15 K, x1 = 0.3986) was 24.97 mPa·s, the viscosity (293.15 K, x1 = 0.701) was 66.19 mPa·s and the viscosity (293.15 K, x1 = 0.907) was 110.8 mPa·s. It also gave a viscosity (293.15 K, x1 = 1) of 130.1 mPa·s, a viscosity (298.15 K, x1 = 0.1009) of 5.05 mPa·s and a viscosity (298.15 K, x1 = 0.1984) of 7.6 mPa·s. The viscosity (298.15 K, x1 = 0.299) was 12.46 mPa·s, the viscosity (298.15 K, x1 = 0.3986) was 19.85 mPa·s and the viscosity (298.15 K, x1 = 0.4986) was 29.5 mPa·s. The viscosity (298.15 K, x1 = 0.6006) was 40.49 mPa·s, the viscosity (298.15 K, x1 = 0.701) was 52.63 mPa·s and the viscosity (298.15 K, x1 = 0.907) was 83.6 mPa·s. For the same compound, the viscosity (303.15 K, x1 = 0.1984) was 6.27 mPa·s, the viscosity (303.15 K, x1 = 0.3986) was 15.9 mPa·s and the viscosity (303.15 K, x1 = 0.4986) was 23.66 mPa·s. For the same compound, the viscosity (303.15 K, x1 = 0.6006) was 32.57 mPa·s, the viscosity (303.15 K, x1 = 0.701) was 42.38 mPa·s and the viscosity (303.15 K, x1 = 0.7941) was 52.54 mPa·s. The viscosity (303.15 K, x1 = 0.907) was 65.49 mPa·s, the viscosity (303.15 K, x1 = 1) was 74.4 mPa·s and the viscosity (308.15 K, x1 = 0.1984) was 5.29 mPa·s. For the same compound, the viscosity (308.15 K, x1 = 0.3986) was 13.2 mPa·s, the viscosity (308.15 K, x1 = 0.4986) was 19.51 mPa·s and the viscosity (308.15 K, x1 = 0.6006) was 26.99 mPa·s. For the same compound, the viscosity (308.15 K, x1 = 0.7941) was 42.67 mPa·s, the viscosity (308.15 K, x1 = 0.907) was 52.32 mPa·s and the viscosity (308.15 K, x1 = 1) was 58.09 mPa·s. It also gave a viscosity (313.15 K, x1 = 0.1009) of 3.15 mPa·s, a viscosity (313.15 K, x1 = 0.1984) of 4.59 mPa·s and a viscosity (313.15 K, x1 = 0.299) of 7.18 mPa·s. The viscosity (313.15 K, x1 = 0.3986) was 11.14 mPa·s, the viscosity (313.15 K, x1 = 0.4986) was 16.4 mPa·s and the viscosity (313.15 K, x1 = 0.6006) was 22.63 mPa·s. For the same compound, the viscosity (313.15 K, x1 = 0.701) was 29.37 mPa·s, the viscosity (313.15 K, x1 = 0.7941) was 35.24 mPa·s and the viscosity (313.15 K, x1 = 0.907) was 42.06 mPa·s. For the same compound, the viscosity (313.15 K, x1 = 1) was 46.29 mPa·s, the viscosity (318.15 K, x1 = 0.1984) was 3.92 mPa·s and the viscosity (318.15 K, x1 = 0.299) was 6.04 mPa·s. It also gave a viscosity (318.15 K, x1 = 0.3986) of 9.3 mPa·s, a viscosity (318.15 K, x1 = 0.4986) of 13.46 mPa·s and a viscosity (318.15 K, x1 = 0.6006) of 18.67 mPa·s. It also gave a viscosity (318.15 K, x1 = 0.701) of 23.75 mPa·s, a viscosity (318.15 K, x1 = 0.7941) of 28.16 mPa·s and a viscosity (318.15 K, x1 = 0.907) of 32.95 mPa·s. For the same compound, the viscosity (318.15 K, x1 = 1) was 36.43 mPa·s.

For CC(N)C(=O)[O-].COCCCCn1cc[n+](C)c1 + CS(C)=O, the viscosity (288.15 K, x1 = 0.1009) was 8.27 mPa·s, the viscosity (288.15 K, x1 = 0.3985) was 40.5 mPa·s and the viscosity (288.15 K, x1 = 0.4922) was 63.89 mPa·s. The viscosity (288.15 K, x1 = 0.6966) was 135.6 mPa·s, the viscosity (288.15 K, x1 = 0.7973) was 203 mPa·s and the viscosity (288.15 K, x1 = 1) was 403 mPa·s. It also gave a viscosity (293.15 K, x1 = 0.1009) of 7.89 mPa·s, a viscosity (293.15 K, x1 = 0.3985) of 31.54 mPa·s and a viscosity (293.15 K, x1 = 0.4922) of 48.62 mPa·s. For the same compound, the viscosity (293.15 K, x1 = 0.5996) was 72 mPa·s, the viscosity (293.15 K, x1 = 0.6966) was 100.9 mPa·s and the viscosity (293.15 K, x1 = 0.7973) was 143.7 mPa·s. The viscosity (293.15 K, x1 = 0.8997) was 206 mPa·s, the viscosity (298.15 K, x1 = 0.1009) was 6.04 mPa·s and the viscosity (298.15 K, x1 = 0.3012) was 15.05 mPa·s. For the same compound, the viscosity (298.15 K, x1 = 0.3985) was 24.76 mPa·s, the viscosity (298.15 K, x1 = 0.4922) was 36.87 mPa·s and the viscosity (298.15 K, x1 = 0.5996) was 53.3 mPa·s. The viscosity (298.15 K, x1 = 0.6966) was 73 mPa·s, the viscosity (298.15 K, x1 = 0.7973) was 101.8 mPa·s and the viscosity (298.15 K, x1 = 0.8997) was 142.7 mPa·s. For the same compound, the viscosity (298.15 K, x1 = 1) was 180.6 mPa·s, the viscosity (303.15 K, x1 = 0.1009) was 4.95 mPa·s and the viscosity (303.15 K, x1 = 0.3012) was 12.31 mPa·s. For the same compound, the viscosity (303.15 K, x1 = 0.3985) was 19.81 mPa·s, the viscosity (303.15 K, x1 = 0.4922) was 29.28 mPa·s and the viscosity (303.15 K, x1 = 0.6966) was 56.62 mPa·s. It also gave a viscosity (303.15 K, x1 = 0.7973) of 77.6 mPa·s, a viscosity (303.15 K, x1 = 0.8997) of 107.6 mPa·s and a viscosity (303.15 K, x1 = 1) of 132.1 mPa·s. For the same compound, the viscosity (308.15 K, x1 = 0.1009) was 4.21 mPa·s, the viscosity (308.15 K, x1 = 0.1996) was 6.25 mPa·s and the viscosity (308.15 K, x1 = 0.3012) was 10.23 mPa·s. For the same compound, the viscosity (308.15 K, x1 = 0.4922) was 23.47 mPa·s, the viscosity (308.15 K, x1 = 0.8997) was 80.8 mPa·s and the viscosity (308.15 K, x1 = 1) was 98.3 mPa·s. For the same compound, the viscosity (313.15 K, x1 = 0.1009) was 3.64 mPa·s, the viscosity (313.15 K, x1 = 0.1996) was 5.27 mPa·s and the viscosity (313.15 K, x1 = 0.3012) was 8.32 mPa·s. For the same compound, the viscosity (313.15 K, x1 = 0.3985) was 13.02 mPa·s, the viscosity (313.15 K, x1 = 0.4922) was 18.84 mPa·s and the viscosity (313.15 K, x1 = 0.5996) was 26.78 mPa·s. For the same compound, the viscosity (313.15 K, x1 = 0.7973) was 47.36 mPa·s, the viscosity (313.15 K, x1 = 0.8997) was 61.67 mPa·s and the viscosity (313.15 K, x1 = 1) was 73.5 mPa·s. It also gave a viscosity (318.15 K, x1 = 0.1996) of 4.57 mPa·s, a viscosity (318.15 K, x1 = 0.3012) of 7.01 mPa·s and a viscosity (318.15 K, x1 = 0.3985) of 10.65 mPa·s. It also gave a viscosity (318.15 K, x1 = 0.6966) of 28.53 mPa·s, a viscosity (318.15 K, x1 = 0.8997) of 47.83 mPa·s and a viscosity (318.15 K, x1 = 1) of 55.86 mPa·s.

Compound CS(C)=O + NC(C)C(=O)[O-].COCCCCN1C=[N+](C=C1)C has a viscosity (288.15 K, x2 = 0) of 2.47 mPa·s, a viscosity (293.15 K, x2 = 0) of 2.21 mPa·s and a viscosity (298.15 K, x2 = 0) of 1.99 mPa·s. The viscosity (303.15 K, x2 = 0) was 1.81 mPa·s, the viscosity (313.15 K, x2 = 0) was 1.51 mPa·s and the viscosity (318.15 K, x2 = 0) was 1.39 mPa·s.
